Measured values as given in PubChem BioAssay AID1963862 (Molecular Pharmacology Branch, DTP, NCI, 2024).

System: KRAS patient-derived spheroids with HUVEC/MSC, viability
Test: Anticancer human tumor 941728-121-R-J1-PDC patient-derived lung adenocarcinoma cell line growth inhibition [KRAS2]
Conditions: for IC50: curve of first compound; for viability, T/C: stronger effect = lower value
Description: Multicellular complex tumor spheroid response to RAS pathway inhibitors in combination with a targeted agents in patient-derived cell lines with oncogenic KRAS variants from multiple cancer types
A high-throughput screen of multi-cell type tumor spheroids was designed to identify active combinations of targeted small molecules and KRAS pathway inhibitors. Complex spheroids include a stromal component modeled by human endothelial cells (HUVEC) and fibroblasts modeled by human mesenchymal stem cells (MSCs). The concentration ranges selected for each drug and investigational agent were based upon clinically achievable concentrations if the clinical Cmax of the agent was known.
Compounds. The drugs and investigational agents: BI-3406 (NSC825286), BAY-293 (NSC824723), batoprotafib (TNO155; NSC825523), sotorasib (AMG 510; NSC818433), MRTX1257 (NSC819558), elimusertib (BAY 1895344; NSC800525), molibresib (GSK525762; NSC774829), temuterkib (LY3214996; NSC803410), venetoclax (NSC766270), alisertib (NSC759677), olaparib (NSC753686), talazoparib (NSC767125), erdafitinib (NSC781556), ipatasertib (NSC767898), cabozantinib (NSC761068), nintedanib (NSC756659), abemaciclib (NSC768073), docetaxel (NSC628503), trametinib (NSC758246), and sapanisertib (NSC764658) were obtained from the National Cancer Institute (NCI) Developmental Therapeutics Program Chemical Repository. The FDA-approved anticancer drug set is available from the Developmental Therapeutics Program. […] The stock solutions were prepared in dimethyl sulfoxide (DMSO, Sigma-Aldrich, St. Louis, MO, cat. D2650) at 800-fold the tested concentration and stored at -70 degrees C prior to their use. All drugs and investigational agents were tested over a range starting from a high concentration at or near the clinical Cmax and decreasing in half-log increments. If the clinical Cmax for an agent had not been determined, the highest concentration tested was 10 microM.
Cell Culture. All cells were maintained in an incubator at 37 degrees C and 5% CO2 with 95% humidity. The PDC lines were cultured according to standard operating procedures established by the NCI PDMR (https://pdmr.cancer.gov/sops/default.htm). Briefly, all PDCs were thawed and cultured in Matrigel-coated flasks prepared with a working solution of 1X Ham's F-12 nutrient mix, without supplementation (Invitrogen, Waltham, MA, cat. 11765054), 100 U/mL penicillin-streptomycin (Invitrogen, cat. 15140122), and 2.5% Matrigel (Corning Inc., Corning, NY, cat. 354248) for the first three passages. All PDCs were cultured in complete DMEM/F-12 media containing advanced DMEM/F-12 (Invitrogen, cat. 12634028), 4.9% defined fetal bovine serum, heat inactivated (HyClone Laboratories Inc., Logan, UT, cat. SH30070.03HI), 389 ng/mL hydrocortisone (Sigma-Aldrich, cat. H4001), 9.7 ng/mL human EGF recombinant protein (Invitrogen, cat. PHG0313), 23.4 microg/mL adenine (Sigma-Aldrich, cat. A2786), 97.3 U/mL penicillin-streptomycin (Invitrogen, cat. 15140122), 1.9 mM L-glutamine (Invitrogen, cat. 25030081), and 9.7 microM Y-27632 dihydrochloride (Tocris Bioscience, Bristol, United Kingdom, cat. 1254). The PDCs were cultured in complete DMEM/F12 media without 9.7 microM Y-27632 dihydrochloride for at least two passages prior to the screen. The established cell line HOP-62 was cultured in RPMI 1640 medium, HEPES (Invitrogen, cat. 22400105) with 10% defined fetal bovine serum (HyClone Laboratories Inc., cat. SH30070.03) and 2 mM L-glutamine (Invitrogen, cat. 25030081). The pooled donor HUVEC were cultured in endothelial cell growth medium 2 (PromoCell, Heidelberg, Germany, cat. C-22011) and the hMSC were cultured in mesenchymal stem cell growth medium 2 (PromoCell, cat. C-28009). For all experiments, HUVEC and hMSC were used at passages </=5, while the malignant cell lines were used at passages </=15. […]

[1] = second compound 0.1 µM, first compound 0.01 µM
[2] = second compound 0.1 µM, first compound 0.0316 µM
[3] = second compound 0.1 µM, first compound 0.1 µM
[4] = second compound 0.1 µM, first compound 0.316 µM
[5] = second compound 0.1 µM, first compound 1 µM
[6] = second compound 0.1 µM, first compound 3.16 µM
[7] = second compound 0.316 µM, first compound 0.01 µM
[8] = second compound 0.316 µM, first compound 0.0316 µM
[9] = second compound 0.316 µM, first compound 0.1 µM
[10] = second compound 0.316 µM, first compound 0.316 µM
[11] = second compound 0.316 µM, first compound 1 µM
[12] = second compound 0.316 µM, first compound 3.16 µM
[13] = second compound 1 µM, first compound 0.01 µM
[14] = second compound 1 µM, first compound 0.0316 µM
[15] = second compound 1 µM, first compound 0.1 µM
[16] = second compound 1 µM, first compound 0.316 µM
[17] = second compound 1 µM, first compound 1 µM
[18] = second compound 1 µM, first compound 3.16 µM
[19] = second compound 3.16 µM, first compound 0.01 µM
[20] = second compound 3.16 µM, first compound 0.0316 µM
[21] = second compound 3.16 µM, first compound 0.1 µM
[22] = second compound 3.16 µM, first compound 0.316 µM
[23] = second compound 3.16 µM, first compound 1 µM
[24] = second compound 3.16 µM, first compound 3.16 µM
[25] = second compound 10 µM, first compound 0.01 µM
[26] = second compound 10 µM, first compound 0.0316 µM
[27] = second compound 10 µM, first compound 0.1 µM
[28] = second compound 10 µM, first compound 0.316 µM
[29] = second compound 10 µM, first compound 1 µM
[30] = second compound 10 µM, first compound 3.16 µM
[31] = second compound 0.1 µM, first compound 0.000316 µM
[32] = second compound 0.1 µM, first compound 0.001 µM
[33] = second compound 0.1 µM, first compound 0.00316 µM
[34] = second compound 0.316 µM, first compound 0.000316 µM
[35] = second compound 0.316 µM, first compound 0.001 µM
[36] = second compound 0.316 µM, first compound 0.00316 µM
[37] = second compound 1 µM, first compound 0.000316 µM
[38] = second compound 1 µM, first compound 0.001 µM
[39] = second compound 1 µM, first compound 0.00316 µM
[40] = second compound 3.16 µM, first compound 0.000316 µM
[41] = second compound 3.16 µM, first compound 0.001 µM
[42] = second compound 3.16 µM, first compound 0.00316 µM
[43] = second compound 10 µM, first compound 0.000316 µM
[44] = second compound 10 µM, first compound 0.001 µM
[45] = second compound 10 µM, first compound 0.00316 µM
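Also: spheroids exposed to agents for seven days before readout.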

Row | SMILES | IC50 (second compound 0.1 µM) [nM] | IC50 (second compound 0.316 µM) [nM] | IC50 (second compound 1 µM) [nM] | IC50 (second compound 3.16 µM) [nM] | IC50 (second compound 10 µM) [nM] | viability, T/C [1] [%] | viability, T/C [2] [%] | viability, T/C [3] [%] | viability, T/C [7] [%] | viability, T/C [8] [%] | viability, T/C [9] [%] | viability, T/C [13] [%] | viability, T/C [14] [%] | viability, T/C [15] [%] | viability, T/C [19] [%] | viability, T/C [20] [%] | viability, T/C [21] [%] | viability, T/C [25] [%] | viability, T/C [26] [%] | viability, T/C [27] [%] | other results
1 | CC(=O)OC12COC1CC(O)C1(C)C(=O)C(O)C3=C(C)C(OC(=O)C(O)C(NC(=O)OC(C)(C)C)c4ccccc4)CC(O)(C(OC(=O)c4ccccc4)C21)C3(C)C (stereo not given) + C=CC(=O)N1CCN(c2nc(=O)n(-c3c(C)ccnc3C(C)C)c3nc(-c4c(O)cccc4F)c(F)cc23)C(C)C1 | < 10 | < 10 | < 10 | < 10 | < 10 | 19.7 | 17.1 | 19.8 | 18.4 | 17.4 | 17.4 | 16.6 | 19.2 | 16.4 | 16.4 | 21.9 | 20.9 | 25.9 | 24 | 29.5 | viability, T/C [4]: 18.1%; viability, T/C [5]: 21.7%; viability, T/C [6]: 20.2%; viability, T/C [10]: 20.2%; viability, T/C [11]: 20.4%; viability, T/C [12]: 18.3%; viability, T/C [16]: 19.1%; viability, T/C [17]: 20.6%; viability, T/C [18]: 20.1%; viability, T/C [22]: 19.5%; viability, T/C [23]: 23.8%; viability, T/C [24]: 19%; viability, T/C [28]: 26.2%; viability, T/C [29]: 28.8%; viability, T/C [30]: 25.5%
2 | CN(C)C/C=C/C(=O)Nc1cc2c(Nc3ccc(F)c(Cl)c3)ncnc2cc1O[C@H]1CCOC1 + C=CC(=O)N1CCN(c2nc(=O)n(-c3c(C)ccnc3C(C)C)c3nc(-c4c(O)cccc4F)c(F)cc23)C(C)C1 | < 0.316 | < 0.316 | < 0.316 | < 0.316 | < 0.316 | 15.5 | 15.9 | 14.3 | 15.3 | 16.7 | 16.4 | 15.7 | 16.5 | 15.9 | 17.9 | 18.9 | 17.3 | 17.7 | 20.7 | 19 | viability, T/C [31]: 18.1%; viability, T/C [32]: 17.1%; viability, T/C [33]: 16.2%; viability, T/C [34]: 17%; viability, T/C [35]: 17.6%; viability, T/C [36]: 15.6%; viability, T/C [37]: 20.6%; viability, T/C [38]: 19.9%; viability, T/C [39]: 18.1%; viability, T/C [40]: 21.5%; viability, T/C [41]: 20.9%; viability, T/C [42]: 19.4%; viability, T/C [43]: 26.3%; viability, T/C [44]: 22.5%; viability, T/C [45]: 23.6%
3 | Cn1nccc1Nc1nccc(-c2cc3c(s2)C(C)(C)N(CCN2CCOCC2)C3=O)n1 + COc1cc2nc(C)nc(NC(C)c3cc(N)cc(C(F)(F)F)c3)c2cc1OC1CCOC1 | 116 | 145 | 58.6 | < 31.6 | < 31.6 |  | 60.1 | 52.7 |  | 64.1 | 55.3 |  | 55.9 | 44.3 |  | 46.5 | 46.7 |  | 30.7 | 30.2 | viability, T/C [4]: 43.7%; viability, T/C [5]: 39.5%; viability, T/C [6]: 39.2%; viability, T/C (second compound 0.1 µM, first compound 10 µM): 37.8%; viability, T/C [10]: 38.9%; viability, T/C [11]: 38.6%; viability, T/C [12]: 39.1%; viability, T/C (second compound 0.316 µM, first compound 10 µM): 33.9%; viability, T/C [16]: 41.1%; viability, T/C [17]: 37.5%; viability, T/C [18]: 38.4%; viability, T/C (second compound 1 µM, first compound 10 µM): 35.1%; viability, T/C [22]: 40.5%; viability, T/C [23]: 40.6%; viability, T/C [24]: 36.3%; viability, T/C (second compound 3.16 µM, first compound 10 µM): 31.5%; viability, T/C [28]: 22.4%; viability, T/C [29]: 20.4%; viability, T/C [30]: 15%; viability, T/C (second compound 10 µM, first compound 10 µM): 11.2%
4 | Cn1ncnc1[C@H]1c2n[nH]c(=O)c3cc(F)cc(c23)N[C@@H]1c1ccc(F)cc1 + COc1cc2nc(C)nc(NC(C)c3cc(N)cc(C(F)(F)F)c3)c2cc1OC1CCOC1 | > 100 | < 0.316 | < 0.316 | < 0.316 | < 0.316 | 52.2 | 66.2 | 58.8 | 36.8 | 47.6 | 48 | 25.6 | 33.5 | 28.7 | 27.4 | 22.1 | 23.6 | 8 | 9.61 | 10.3 | viability, T/C [31]: 61.1%; viability, T/C [32]: 51.9%; viability, T/C [33]: 47.1%; viability, T/C [34]: 48.9%; viability, T/C [35]: 41.8%; viability, T/C [36]: 36.7%; viability, T/C [37]: 41.6%; viability, T/C [38]: 31.4%; viability, T/C [39]: 30.7%; viability, T/C [40]: 36.6%; viability, T/C [41]: 34.4%; viability, T/C [42]: 32.1%; viability, T/C [43]: 14.5%; viability, T/C [44]: 11.8%; viability, T/C [45]: 13.1%
